Data published in patent publication US5656603A (Loyola University of Chicago, priority 1995, dated 1997).

Legend:
Type in all cases: biochemical
[1] = target: T1, recombinant E. coli aminopeptidase P (Escherichia coli, UniProt P15034); test: Aminopeptidase P inhibition, release of arginine from Arg-Pro-Pro (fluorescent assay)
T1 construct: supplied by Dr. Tadashi Yoshimoto (Nagasaki University)
Text: (§1) Enzymes--Membrane-bound aminopeptidase P was purified to homogeneity from bovine lung (14) and from rat lung. Partially purified membrane-bound aminopeptidase P from human lung was obtained by treatment of lung microsomes with phosphatidylinositol-specific phospholipase C (B. thuringiensis) (ICN, Costa Mesa, Calif.) followed by centrifugation as described previously (14). Membrane dipeptidase was purified from rat lung microsomes (manuscript in preparation). Recombinant E. coli aminopeptidase P (22) and purified lamb kidney prolyl oligopeptidase (23) were generally supplied by Dr. Tadashi Yoshimoto (Nagasaki University). Purified porcine kidney prolidase and purified porcine kidney aminopeptidase M was obtained from Sigma (St. Louis, Mo.).
Enzyme Kinetics--Aminopeptidase P activity was determined by measuring the release of arginine from Arg-Pro-Pro by a fluorescent assay described previously (14). […] Each mixture was run in duplicate. Aliquots were removed from each incubation mixture at various times and assayed for the amount of arginine present to determine the reaction velocity. In general, reaction velocities were calculated from data representing less than 20% cleavage of substrate. Ki and Ki ' (=αKi) were determined from plots of 1/v versus concentration of inhibitor "i" (26) and S/v versus concentration of inhibitor "i" (27), respectively. These parameters were also determined from the slope replot and 1/v-intercept replot, respectively, of the 1/v versus 1/S plot (28). See e.g., FIG. 1B. The values from the two treatments of the data were averaged for each experiment. Experiments for each enzyme preparation were performed twice and the results averaged.

[2] = target: T2, endopeptidase 24.15 (Rattus norvegicus, UniProt P24155); test: Specificity of apstatin: endopeptidase 24.15; details: rat brain synaptosomes; Bk(2-9), pH 6.8, HPLC-1
T2 construct: endopeptidase 24.15 (EC 3.4.24.15) (rat brain synaptosomes); from tissue; host or cells: rat brain synaptosomes
Method: (§2) Specificity of Apstatin--Apstatin was assayed for its ability to inhibit several other peptidases. […] Unless otherwise indicated, the source of each enzyme activity was a detergent extract of bovine lung prepared as described in (12-13). Activities were determined by a modification of the fluorescent assay described above (indicated by "FLUO") or by HPLC separation and quantitation of reaction products using the method described in (12) (method "HPLC-1") or the method described below (method "HPLC-2"). […]

[3] = target: prolyl oligopeptidase (Ovis aries, UniProt A0ACI6PCU6); test: Specificity of apstatin: prolyl oligopeptidase; details: purified, lamb kidney; Bk, pH 6.8, HPLC-1
Text: as §1, §2

T1 sequence (P15034 whole entry): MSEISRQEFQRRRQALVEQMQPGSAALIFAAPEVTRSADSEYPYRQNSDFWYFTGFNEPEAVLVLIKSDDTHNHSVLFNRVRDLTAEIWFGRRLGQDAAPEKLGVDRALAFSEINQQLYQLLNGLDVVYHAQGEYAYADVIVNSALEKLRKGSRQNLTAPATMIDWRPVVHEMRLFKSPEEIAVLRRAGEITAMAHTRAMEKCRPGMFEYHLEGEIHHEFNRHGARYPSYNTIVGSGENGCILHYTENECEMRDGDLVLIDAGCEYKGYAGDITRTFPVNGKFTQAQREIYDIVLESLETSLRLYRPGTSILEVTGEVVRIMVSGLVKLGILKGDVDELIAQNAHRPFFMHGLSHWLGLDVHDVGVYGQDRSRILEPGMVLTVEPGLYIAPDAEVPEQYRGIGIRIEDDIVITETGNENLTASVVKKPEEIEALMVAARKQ
Sequence of prolyl oligopeptidase (A0ACI6PCU6 entry or part of it): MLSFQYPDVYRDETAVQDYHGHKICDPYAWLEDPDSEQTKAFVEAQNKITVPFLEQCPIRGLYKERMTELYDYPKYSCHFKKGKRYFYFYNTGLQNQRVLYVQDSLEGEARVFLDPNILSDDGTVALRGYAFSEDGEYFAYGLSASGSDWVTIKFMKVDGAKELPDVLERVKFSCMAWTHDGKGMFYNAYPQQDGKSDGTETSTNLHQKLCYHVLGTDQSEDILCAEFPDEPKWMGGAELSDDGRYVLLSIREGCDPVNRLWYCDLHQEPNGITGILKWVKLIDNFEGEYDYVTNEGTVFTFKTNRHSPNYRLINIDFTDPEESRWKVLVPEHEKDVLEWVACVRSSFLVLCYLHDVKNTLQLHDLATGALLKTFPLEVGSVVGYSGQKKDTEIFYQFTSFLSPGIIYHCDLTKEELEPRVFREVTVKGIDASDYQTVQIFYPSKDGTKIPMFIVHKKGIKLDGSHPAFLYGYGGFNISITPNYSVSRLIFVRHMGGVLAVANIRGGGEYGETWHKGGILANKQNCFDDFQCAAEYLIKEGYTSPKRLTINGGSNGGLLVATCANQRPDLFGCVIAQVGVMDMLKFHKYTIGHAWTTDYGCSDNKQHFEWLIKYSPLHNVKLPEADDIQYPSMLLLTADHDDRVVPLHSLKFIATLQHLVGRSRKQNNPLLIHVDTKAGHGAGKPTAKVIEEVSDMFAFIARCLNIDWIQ
T2 sequence (P24155 whole entry): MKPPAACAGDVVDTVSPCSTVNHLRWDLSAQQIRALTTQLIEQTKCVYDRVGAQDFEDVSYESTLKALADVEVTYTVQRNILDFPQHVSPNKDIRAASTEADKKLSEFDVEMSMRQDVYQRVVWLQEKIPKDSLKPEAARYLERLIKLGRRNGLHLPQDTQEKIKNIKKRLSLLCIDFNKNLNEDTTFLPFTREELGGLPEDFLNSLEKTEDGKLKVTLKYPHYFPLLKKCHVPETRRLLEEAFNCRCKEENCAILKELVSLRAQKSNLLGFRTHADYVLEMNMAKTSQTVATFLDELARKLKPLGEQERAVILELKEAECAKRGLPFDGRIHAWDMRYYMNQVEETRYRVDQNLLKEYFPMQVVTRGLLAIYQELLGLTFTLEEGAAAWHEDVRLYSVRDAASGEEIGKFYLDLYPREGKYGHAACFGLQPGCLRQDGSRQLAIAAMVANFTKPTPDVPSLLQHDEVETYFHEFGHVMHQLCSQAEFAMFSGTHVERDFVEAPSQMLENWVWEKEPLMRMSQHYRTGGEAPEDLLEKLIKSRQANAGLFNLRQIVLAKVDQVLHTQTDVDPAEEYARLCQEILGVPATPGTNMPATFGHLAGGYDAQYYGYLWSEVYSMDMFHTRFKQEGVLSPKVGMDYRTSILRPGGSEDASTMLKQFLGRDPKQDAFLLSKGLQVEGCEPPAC

C[C@H](NC(=O)[C@@H]1CCCN1C(=O)[C@@H]1CCCN1C(=O)[C@@H](O)[C@H](N)Cc1ccccc1)C(N)=O [apstatin, N-[(2S, 3R)-3-amino-2-hydroxy-4-phenylbutanoyl]-L-prolyl-L-prolyl-Lalaninamide]
α (αKi = equilibrium constant for enzyme-inhibitor binding at infinite substrate concentration) ([1]; E. coli, recombinant): 2.5 | Ki ([1]; E. coli, recombinant, substrate Arg-Pro-Pro, 0.1 M Hepes pH 8.0, 39° C.): 14 µM | type of inhibition ([1]; recombinant E. coli aminopeptidase P): linear mixed-type | IC50 [2]: > 800 µM | IC50 [3]: > 800 µM
